Activity calls are given as the source filed them. The rule behind the calls is not given here.
Assays:
SH-SY5Y [1] = experiment: Antagonist activity at NMDA receptor in human SH-SY5Y cells assessed as inhibition of calcium influx at 10 uM by Fura-2AM dye based fluorescence analysis relative to control; type: cell-based
SH-SY5Y [2] = experiment: Blockade of VGCC in human SH-SY5Y cells assessed as inhibition of membrane depolarisation-induced calcium influx at 10 uM by Fura-2AM dye based fluorescence analysis relative to control; type: cell-based
SH-SY5Y [3] = experiment: Cytotoxicity against human SH-SY5Y cells assessed as reduction in cell viability at 10 to 100 uM incubated for 24 hrs by MTT assay; type: cell-based; conditions: dose 10-100 µM
[4] = Cytotoxicity against human SH-SY5Y cells assessed as cell viability at 10 uM incubated for 24 hrs by MTT assay relative to control; type: cell-based; conditions: read-out: Activity
SH-SY5Y [5] = experiment: Neuroprotective activity against MPP+-induced neurotoxicity in human SH-SY5Y cells assessed as cell viability at 10 uM pretreated for 2 hrs followed by MPP+ challenge and measured after 24 hrs by MTT assay relative to control; type: functional; conditions: time 26 hrs, read-out: Activity
[6] = Displacement of [3H]MK801 from NMDA receptor in human brain by radioligand binding assay; type: tissue-based
[7] = Cytotoxicity against human SH-SY5Y cells assessed as cell viability at 100 uM incubated for 24 hrs by MTT assay relative to control; type: cell-based; conditions: read-out: Activity
[8] = Displacement of [3H]MK801 from NMDA receptor in Sprague-Dawley rat cerebral cortical membrane incubated for 60 mins by liquid scintillation counting analysis; type: cell membranes, Cerebral cortex
[9] = Antagonist activity at NMDA receptor (unknown origin); design: species or system Homo sapiens
[10] = Displacement of [3H]MK801 from NMDA receptor (unknown origin) by radioligand binding assay; design: species or system Homo sapiens

Row | SMILES | inhibition (SH-SY5Y [2]) | Activity (SH-SY5Y [3]) | viability at 24 h, 10 µM [4] [%] | viability at 10 µM (SH-SY5Y [5]) [%] | inhibition (SH-SY5Y [1]; filed as antagonist) [%] | also measured
1 | COCCOC(=O)C1=C(C)NC(C)=C(C(=O)OC(C)C)C1c1cccc([N+](=O)[O-])c1 (stereo not given) | 34.1% |  |  |  |  | inhibition (SH-SY5Y [1]): inactive
2 | O=C1CC[C@H](O)C2C3C=C[C@@H](C3)C12 (single isomer, unassigned) | 32.8% | Non-Toxic | 96.3 | 35 | 69.7 | 
3 | CC12CC3CC(C)(C1)CC(N)(C3)C2 [MEMANTINE] |  |  |  |  |  | Ki [6]: 540 nM
4 | C1=C[C@H]2CC[C@@H]1[C@H]1CNC[C@H]12 | 5.79% | Non-Toxic | 108 | 27.5 | 55.5 | 
5 | C1C2OC2[C@H]2[C@@H]1[C@H]1C[C@@H]2C2OC21 (stereo not given in full) | 8.49% | Toxic | 94.4 | 27.9 | 53.3 | 
6 | O[C@@H]1C[C@H]2CC[C@@H]1NC2 | inactive | Toxic | 96.3 | 28.3 | 43.5 | viability at 24 h, 100 µM [7]: 59%
7 | C[C@@]12N[C@@H](Cc3ccccc31)c1ccccc12 | inactive |  |  |  | 47.5 | Ki [8]: 37.2 nM
8 | O=C1CCC(=O)[C@H]2[C@@H]1[C@H]1C=C[C@H]2C1 | 25.4% | Toxic | 96.6 | 40.6 | 51 | 
9 | O=C1C=CC(=O)[C@H]2[C@@H]1[C@H]1C=C[C@H]2C1 | 15% | Toxic | 97.7 | 32.8 | 43.8 | 
10 | NC12CC3CC(CC(C3)C1)C2 [AMANTADINE] |  |  |  |  |  | Ki [9]: 10 µM
11 | CN[C@@]1(c2ccccc2Cl)CCCCC1=O |  |  |  |  |  | Ki [10]: 659 nM
12 | O=C1C2C3C=CC(C3)C2C(=O)C2C3C=CC(C3)C12 (stereo not given) | 50.3% | Non-Toxic | 95.9 | 41.4 | 62.3 | 
13 | c1ccc(C2(N3CCCCC3)CCCCC2)cc1 [PHENCYCLIDINE] |  |  |  |  |  | Ki [10]: 59 nM
14 | O=C1C=C[C@H](NN2CCCCC2)[C@@H]2[C@H]1[C@H]1C=C[C@@H]2C1 | 8.4% | Non-Toxic | 93.7 | 33.9 | 65.3 | 
15 | O=C1C=C[C@H](NCc2ccccc2)[C@@H]2[C@H]1[C@H]1C=C[C@@H]2C1 | 21.3% | Toxic | 108 | 33.7 |  | inhibition (SH-SY5Y [1]): 26.5%
16 | O=C1CC[C@H]2C[C@@H]1CCC2=O | inactive | Non-Toxic | 125 | 26.1 | 73 | 

From ChEMBL document CHEMBL4765400, “Open and rearranged norbornane derived polycyclic cage molecules as potential neuroprotective agents through attenuation of MPP- and calcium overload-induced excitotoxicity in neuroblastoma SH-SY5Y cells” (Eur J Med Chem, 2020)
